Source: US10932466B2, “Fungicidal compositions” (SYNGENTA PARTICIPATIONS AG, priority 2016, dated 2021)
Where two headings read alike, the source gives them in different places.

Tests used:
Assay type in all cases: cell-based
Rhizoctonia solani = Rhizoctonia solani (Thanatephorus cucumeris) growth inhibition in PDB, 96-well microtiter plate, photometric and visual after 3-4 days; details: for inhibition at 0.0063 ppm: 1.001 0.0063 ppm alone; for inhibition at 0.0125 ppm: 1.001 0.0125 ppm alone; for inhibition at 0.025 ppm: 1.001 0.0250 ppm alone; for inhibition at 0.05 ppm: 1.001 0.0500 ppm alone; for inhibition at 0.1 ppm: 1.001 0.1000 ppm alone
Procedure: VI) Rhizoctonia solani (Thanatephorus cucumeris) Mycelial fragments of a newly grown liquid culture of the fungus were directly mixed into nutrient broth (PDB potato dextrose broth). After placing a (DMSO) solution of the test compounds into a microtiter plate (96-well format), the nutrient broth containing the fungal material was added. The test plates were incubated at 24° C. and the inhibition of growth was determined photometrically and visually 3-4 days after application.

Alternaria solani = Alternaria solani (early blight tomato/potato) growth inhibition in PDB, 96-well microtiter plate, photometric after 48 hrs; details: for Compound 1.001 inhibition: 1.001 0.0000 ppm, Table 11; for inhibition at 0.0008 ppm: 1.001 0.0008 ppm alone
Procedure: III) Altemaria solani (Early Blight Tomato/Potato):
(§1) Conidia of the fungus from cryogenic storage were directly mixed into nutrient broth (PDB potato dextrose broth). After placing a (DMSO) solution of the test compounds into a microtiter plate (96-well format), the nutrient broth containing the fungal spores was added. The test plates were incubated at 24 C and the inhibition of growth was determined photometrically after 48 hrs.

Septoria tritici = Septoria tritici (leaf blotch) growth inhibition in PDB, 96-well microtiter plate, photometric after 72 hrs; details: Zymoseptoria tritici; for inhibition at 0.0008 ppm: 1.001 0.0008 ppm alone
Procedure: as §1, with “I) Septoria tritici (Leaf Blotch): Conidia” for “Conidia”, “72” for “48”

Botrytis cinerea = Botrytis cinerea (gray mould) growth inhibition in PDB, 96-well microtiter plate, photometric after 72 hrs; details: for inhibition at 0.0063 ppm: 1.001 0.0063 ppm alone
Procedure: as §1, with “V) Botrytis cinerea (Gray Mould): Conidia” for “Conidia”, “72” for “48”

Venturia inaequalis = Venturia inaequalis (apple scab) growth inhibition in PDB, 96-well microtiter plate, photometric after 7 days; details: for inhibition at 0.0016 ppm: 1.001 0.0016 ppm alone; for inhibition at 0.0031 ppm: 1.001 0.0031 ppm alone
Procedure: as §1, with “IV) Venturia inaeaualis (Apple Scab): Conidia” for “Conidia”, “7 days.” for “48 hrs.”

[1] = system: Mycosphaerella arachidis, syn. Cercospora arachidicola; experiment: Mycosphaerella arachidis (peanut brown leaf spot) growth inhibition in PDB, 96-well microtiter plate, photometric after 5-6 days
Procedure: as §1, with “II) Mycosphaerella arachidis, syn. Cercospora arachidicola (Peanut Brown Leaf Soot): Conidia” for “Conidia”, “approximately 5-6 days.” for “48 hrs.”

[2] = Table 8, read-out: Compound 1.001 inhibition
[3] = Table 14, read-out: Compound 1.001 inhibition
[4] = Table 6, read-out: Compound 1.001 inhibition
[5] = Table 12, read-out: Compound 1.001 inhibition

## Cc1nnc(Cl)c(-c2c(F)cccc2F)c1-c1ccccc1 [(IIc), 4-(2,6-difluorophenyl)-3-chloro-6-methyl-5-phenyl-pyridazine]
Rhizoctonia solani; (IIc) 0.0313 ppm alone, Table 8
  inhibition at 0.0313 ppm: 5%
Rhizoctonia solani; (IIc) 0.0625 ppm alone, Table 8
  inhibition at 0.0625 ppm: 31%
Rhizoctonia solani; (IIc) 0.1250 ppm alone, Table 8
  inhibition at 0.125 ppm: 85%
Rhizoctonia solani; (IIc) 0.2500 ppm alone, Table 8
  inhibition at 0.25 ppm: 88%
Alternaria solani; Alternaria solani, (IIc) 0.0020 ppm alone, Table 5
  inhibition at 0.002 ppm: 0%
Septoria tritici; (IIc) 0.0156 ppm alone, Table 4
  inhibition at 0.0156 ppm: 1%
Botrytis cinerea; (IIc) 0.0156 ppm alone, Table 7
  inhibition at 0.0156 ppm: 5%
Botrytis cinerea; (IIc) 0.0313 ppm alone, Table 7, read-out: (IIc) Inhibition
  inhibition at 0.0313 ppm: 4%
Venturia inaequalis; (IIc) 0.0078 ppm alone, Table 6
  inhibition at 0.0078 ppm: 0%
Venturia inaequalis; (IIc) 0.0156 ppm alone, Table 6, read-out: (IIc) Inhibition
  inhibition at 0.0156 ppm: 6%
Venturia inaequalis; (IIc) 0.0313 ppm alone, Table 6, read-out: (IIc) Inhibition
  inhibition at 0.0313 ppm: 0%

## Cc1nnc(C#N)c(-c2c(F)cccc2F)c1-c1ccccc1 [(IId), 4-(2,6-difluorophenyl)-6-methyl-5-phenyl-pyridazine-3-carbonitrile]
Rhizoctonia solani; (IId) 0.5000 ppm alone, Table 14
  inhibition at 0.5 ppm: 31%
Septoria tritici; (IId) 0.0313 ppm alone, Table 9
  inhibition at 0.0313 ppm: 3%
Septoria tritici; (IId) 0.0625 ppm alone, Table 9
  inhibition at 0.0625 ppm: 8%
Botrytis cinerea; (IId) 0.0313 ppm alone, Table 13, read-out: (IId) Inhibition
  inhibition at 0.0313 ppm: 0%
Botrytis cinerea; (IId) 0.0625 ppm alone, Table 13
  inhibition at 0.0625 ppm: 0%
[1]; (IId) 0.0039 ppm alone, Table 10
  inhibition at 0.0039 ppm: 5%
[1]; (IId) 0.0313 ppm alone, Table 10
  inhibition at 0.0313 ppm: 5%
Venturia inaequalis; (IId) 0.0156 ppm alone, Table 12, read-out: (IId) Inhibition
  inhibition at 0.0156 ppm: 0%
Venturia inaequalis; (IId) 0.0313 ppm alone, Table 12, read-out: (IId) Inhibition
  inhibition at 0.0313 ppm: 15%
Venturia inaequalis; (IId) 0.0625 ppm alone, Table 12
  inhibition at 0.0625 ppm: 0%

## CON(C(=O)c1cn(C)nc1C(F)F)C(C)Cc1c(Cl)cc(Cl)cc1Cl (stereo not drawn) [Compound 1.001, 3-(difluoromethyl)-N-methoxy-1-methyl-N-[1-methyl-2-(2,4,6-trichlorophenyl)ethyl]pyrazole-4-carboxamide]
Rhizoctonia solani; 1.001 0.0031 ppm alone, Table 8, read-out: Compound 1.001 inhibition
  inhibition at 0.0031 ppm: 13%
Rhizoctonia solani; [2]
  inhibition at 0.0063 ppm: 16%
  inhibition at 0.0125 ppm: 0%
  inhibition at 0.025 ppm: 0%
  inhibition at 0.05 ppm: 15%
  inhibition at 0.1 ppm: 0%
Rhizoctonia solani; [3]
  inhibition at 0.0063 ppm: 0%
  inhibition at 0.0125 ppm: 0%
  inhibition at 0.025 ppm: 9%
  inhibition at 0.05 ppm: 0%
  inhibition at 0.1 ppm: 0%
Alternaria solani; (IId) 0.0039 ppm
  Compound 1.001 inhibition: 9%
Alternaria solani; (IId) 0.0078 ppm
  Compound 1.001 inhibition: 6%
Alternaria solani; (IId) 0.0156 ppm
  Compound 1.001 inhibition: 10%
Alternaria solani; (IId) 0.0625 ppm
  Compound 1.001 inhibition: 6%
Alternaria solani; (IId) 0.1250 ppm
  Compound 1.001 inhibition: 0%
Alternaria solani; Alternaria solani, 1.001 0.0004 ppm alone, Table 11, read-out: Compound 1.001 inhibition
  inhibition at 0.0004 ppm: 26%
Alternaria solani; Alternaria solani, Table 5, read-out: Compound 1.001 inhibition
  inhibition at 0.0008 ppm: 23%
Alternaria solani; Alternaria solani, Table 11, read-out: Compound 1.001 inhibition
  inhibition at 0.0008 ppm: 34%
Alternaria solani; Alternaria solani, 1.001 0.0016 ppm alone, Table 11, read-out: Compound 1.001 inhibition
  inhibition at 0.0016 ppm: 60%
Septoria tritici; Table 4, read-out: Compound 1.001 inhibition
  inhibition at 0.0008 ppm: 49%
Septoria tritici; Table 9, read-out: Compound 1.001 inhibition
  inhibition at 0.0008 ppm: 45%
Septoria tritici; 1.001 0.0016 ppm alone, Table 9, read-out: Compound 1.001 inhibition
  inhibition at 0.0016 ppm: 81%
Botrytis cinerea; Table 7, read-out: Compound 1.001 inhibition
  inhibition at 0.0063 ppm: 30%
Botrytis cinerea; Table 13, read-out: Compound 1.001 inhibition
  inhibition at 0.0063 ppm: 34%
[1]; 1.001 0.0004 ppm alone, Table 10, read-out: Compound 1.001 inhibition
  inhibition at 0.0004 ppm: 47%
Venturia inaequalis; [4]
  inhibition at 0.0016 ppm: 62%
  inhibition at 0.0031 ppm: 84%
Venturia inaequalis; [5]
  inhibition at 0.0016 ppm: 50%
  inhibition at 0.0031 ppm: 81%
